Reference: patent US20140357841A1, “Method for stabilizing polypeptide into alpha helix” (Peking University Shenzhen Graduate School, priority 2013, published 2014)
Marks after values point to notes of the source that are not given here.

Tests used:
[1] = circular dichroism (CD) detection of alpha helix content in PBS; assay type: physicochemical; parameters: [θ]215 / [θ]207 / [θ]190: unit not given here; details: for alpha helix stabilization / content by CD (in words): PBS 10 mM; for [θ]190 / [θ]207 / [θ]215 / [θ]215/[θ]207: CD; for [θ]190 / [θ]207 / [θ]215 / [θ]215/[θ]207 / relative content of alpha helix: PBS pH = 7.4, 22° C., 10 mM; for relative content of alpha helix: [θ]215(x)/[θ]215(ASOB), ASOB is the standard
Method: The obtained compound 4 is dissolved into of PBS (PH=7.4, 10 mM) for obtaining a CD diagram.
fH=([θ]obs215-[θ]C)/([θ]∞215-[θ]C);
wherein T=22° C.; κ=4.0; Np=6 (for pentapeptide); ι=0.1 (cm); C is a molarity M of the samples of the two isomers.

[2] = CD comparison in PBS and 50% trifluoroethanol (TFE) solution; assay type: physicochemical; details: CD in PBS versus 50% TFE solution
Description: FIG. 2 is a CD diagram of the Ac-cyclo(1,5)-monoS5AAAC-NH2 sulfoxide B in the PBS and a 50% trifluoroethanol (TFE) solution according to the Example 1 of the present invention.

Row | Substance | [θ]190 [1] | [θ]207 [1] | [θ]215 [1] | [θ]215/[θ]207 [1] | relative content of alpha helix [1] | improvement of the effects of stabilizing the alpha helix compared to conventional amido bond stabilization ([1]; versus control of Table 3, identical intermediate sequences) [%] | effect of TFE buffer solution on the alpha helix [2] | alpha helix stabilization / content by CD (in words) [1]
1 | Ac-cyclo(1,5)-monoS6AAAC-NH2 sulfoxide B |  |  |  |  |  |  |  | has effects of stabilizing alpha helix
2 | Ac-cyclo(1,5)-monoS5AAAC-NH2 sulfoxide A [ASOA] | −14594 | −4667 | 672 | −0.14 | −0.04 | 14 |  | 
3 | Ac-cyclo(1,5)-monoS5AAAC-NH2 sulfoxide B [ASOB] | 25987 | −16054 | −15666 | 0.98 | 1.00 |  | no improvements | has stable alpha helixes

The next lines start with results.

Row | [θ]190 [1] | [θ]207 [1] | [θ]215 [1] | [θ]215/[θ]207 [1] | relative content of alpha helix [1] | improvement of the effects of stabilizing the alpha helix compared to conventional amido bond stabilization ([1]; versus control of Table 3, identical intermediate sequences) [%] | effect of TFE buffer solution on the alpha helix [2] | Substance | alpha helix stabilization / content by CD (in words) [1]
4 | 9121 | −7777 | −7920 | 1.02 | 0.51 |  |  | Ac-cyclo(1,5)-monoS5AGAC-NH2 sulfoxide B [GSOB] | identically high contents of the alpha helixes
5 | 26306 | −15556 | −13558 | 0.87 | 0.87 |  |  | Ac-cyclo(1,5)-monoS5AIAC-NH2 sulfoxide B [ISOB] | identically high contents of the alpha helixes
6 | 39352 | −13684 | −13537 | 0.99 | 0.86** |  |  | Ac-(cyclo2,6)-R[KAAAD]-NH2 [control, reference compound] | 
